Format in all cases: cell-based
For experiment [1], the target named is T1, SMARCA2 (Homo sapiens, UniProt P51531). The experiment in a line: SMARCA2 Western blot degradation in MV4-11 cells. To be noted: for Dmax: MV4-11, MV4-11 cells, read-out: SMARCA2 MSD MV411 degradation 24 h: average Dmax %; for DC50: read-out: SMARCA2 MSD MV411 degradation 24 h: Mean external-Abs DC50; for Selectivity in MV411: SMARCA2/4 selectivity. Also noted: SMARCA2/SMARCA4 protein degradation selectivity in MV4-11 cells; endogenous in cells; host or cells: MV4-11. In general terms: Immunoblotting shows a protein as a band on a membrane.

In the next experiment the target is T2, SMARCA4 (Homo sapiens, UniProt P51532).
T2 construct: SMARCA2/SMARCA4 protein degradation selectivity in MV4-11 cells; endogenous in cells; host or cells: MV4-11
Description: SMARCA4 Western blot degradation in MV4-11 cells. As to conditions: for Dmax: MV4-11, MV4-11 cells, read-out: SMARCA4 MSD MV411 degradation 24 h: average Dmax %; for Dmax / DC50: 24 h; for DC50: read-out: SMARCA4 MSD MV411 degradation 24 h: Mean external-Abs DC50. In short, it runs like this: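 24 h compound exposure, MV4-11; RIPA lysates → SDS-PAGE → NC membrane; anti-SMARCA2/BRM, anti-BRG1, β-actin loading control; LI-COR fluorescence read. DC50 and Dmax at 24 h reported as letter bins.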

Experiment [2] has as its target T1, SMARCA2. Description: MSD SMARCA2 degradation in A549 cell line. As to conditions: for Dmax: A549, A549 cells; for Dmax / DC50: 24 h; for DC50: read-out: SMARCA2 MSD A549 degradation 24 h: Average external-Abs DC50. The gist of the method:
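A549 cells treated 24 h with compound, 3-fold series from 1000 nM. Lysates captured on MSD plates and SMARCA2 quantified with anti-SMARCA2 and SULFO-TAG secondary antibodies (electrochemiluminescence). DC50 and Dmax (% degradation at 24 h) reported as letter bins.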

Where only a bound is given, the exact number is not on record here.

T2 sequence (P51532 whole entry): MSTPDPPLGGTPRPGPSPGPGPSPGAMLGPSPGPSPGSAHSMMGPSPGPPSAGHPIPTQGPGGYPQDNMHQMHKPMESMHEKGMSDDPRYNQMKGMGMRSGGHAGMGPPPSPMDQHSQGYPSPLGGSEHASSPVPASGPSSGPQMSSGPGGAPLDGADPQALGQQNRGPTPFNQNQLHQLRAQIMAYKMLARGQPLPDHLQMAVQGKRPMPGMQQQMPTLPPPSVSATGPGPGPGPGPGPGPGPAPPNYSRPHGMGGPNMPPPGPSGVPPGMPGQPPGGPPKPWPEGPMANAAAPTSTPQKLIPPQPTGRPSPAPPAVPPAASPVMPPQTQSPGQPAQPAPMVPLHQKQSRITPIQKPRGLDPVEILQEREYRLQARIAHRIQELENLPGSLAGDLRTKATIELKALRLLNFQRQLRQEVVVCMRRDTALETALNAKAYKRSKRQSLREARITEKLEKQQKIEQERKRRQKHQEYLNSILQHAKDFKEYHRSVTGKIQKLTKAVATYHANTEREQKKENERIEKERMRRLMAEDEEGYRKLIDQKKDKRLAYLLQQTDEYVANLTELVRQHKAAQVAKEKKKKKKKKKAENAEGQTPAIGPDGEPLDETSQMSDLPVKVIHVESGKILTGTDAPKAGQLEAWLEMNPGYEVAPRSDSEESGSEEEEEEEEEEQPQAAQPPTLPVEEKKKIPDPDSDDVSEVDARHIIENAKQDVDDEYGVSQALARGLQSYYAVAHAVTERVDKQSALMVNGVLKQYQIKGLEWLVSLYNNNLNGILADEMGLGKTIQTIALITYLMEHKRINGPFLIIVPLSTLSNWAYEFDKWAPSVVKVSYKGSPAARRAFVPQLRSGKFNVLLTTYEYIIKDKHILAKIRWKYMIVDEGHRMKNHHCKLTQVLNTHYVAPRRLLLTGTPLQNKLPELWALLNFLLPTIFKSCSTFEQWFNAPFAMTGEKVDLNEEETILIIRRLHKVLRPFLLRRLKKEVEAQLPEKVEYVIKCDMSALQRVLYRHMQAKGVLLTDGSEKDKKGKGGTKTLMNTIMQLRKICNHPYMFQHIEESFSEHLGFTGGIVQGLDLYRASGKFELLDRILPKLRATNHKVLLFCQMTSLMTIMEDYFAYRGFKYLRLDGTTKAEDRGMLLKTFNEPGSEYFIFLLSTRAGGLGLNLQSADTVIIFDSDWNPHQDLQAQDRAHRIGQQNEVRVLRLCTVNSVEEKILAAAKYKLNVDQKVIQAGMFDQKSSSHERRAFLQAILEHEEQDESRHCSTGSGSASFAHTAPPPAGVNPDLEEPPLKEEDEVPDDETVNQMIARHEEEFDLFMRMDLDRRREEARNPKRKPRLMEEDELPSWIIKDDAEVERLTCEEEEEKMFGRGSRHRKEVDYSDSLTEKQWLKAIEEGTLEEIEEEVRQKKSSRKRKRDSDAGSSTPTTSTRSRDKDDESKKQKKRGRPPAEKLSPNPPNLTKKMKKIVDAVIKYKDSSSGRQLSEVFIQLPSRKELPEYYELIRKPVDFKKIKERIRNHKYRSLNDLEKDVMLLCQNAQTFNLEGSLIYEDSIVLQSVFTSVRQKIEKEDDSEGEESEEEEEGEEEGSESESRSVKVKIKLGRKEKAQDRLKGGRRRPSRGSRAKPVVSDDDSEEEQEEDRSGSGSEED
T1 sequence (P51531 whole entry): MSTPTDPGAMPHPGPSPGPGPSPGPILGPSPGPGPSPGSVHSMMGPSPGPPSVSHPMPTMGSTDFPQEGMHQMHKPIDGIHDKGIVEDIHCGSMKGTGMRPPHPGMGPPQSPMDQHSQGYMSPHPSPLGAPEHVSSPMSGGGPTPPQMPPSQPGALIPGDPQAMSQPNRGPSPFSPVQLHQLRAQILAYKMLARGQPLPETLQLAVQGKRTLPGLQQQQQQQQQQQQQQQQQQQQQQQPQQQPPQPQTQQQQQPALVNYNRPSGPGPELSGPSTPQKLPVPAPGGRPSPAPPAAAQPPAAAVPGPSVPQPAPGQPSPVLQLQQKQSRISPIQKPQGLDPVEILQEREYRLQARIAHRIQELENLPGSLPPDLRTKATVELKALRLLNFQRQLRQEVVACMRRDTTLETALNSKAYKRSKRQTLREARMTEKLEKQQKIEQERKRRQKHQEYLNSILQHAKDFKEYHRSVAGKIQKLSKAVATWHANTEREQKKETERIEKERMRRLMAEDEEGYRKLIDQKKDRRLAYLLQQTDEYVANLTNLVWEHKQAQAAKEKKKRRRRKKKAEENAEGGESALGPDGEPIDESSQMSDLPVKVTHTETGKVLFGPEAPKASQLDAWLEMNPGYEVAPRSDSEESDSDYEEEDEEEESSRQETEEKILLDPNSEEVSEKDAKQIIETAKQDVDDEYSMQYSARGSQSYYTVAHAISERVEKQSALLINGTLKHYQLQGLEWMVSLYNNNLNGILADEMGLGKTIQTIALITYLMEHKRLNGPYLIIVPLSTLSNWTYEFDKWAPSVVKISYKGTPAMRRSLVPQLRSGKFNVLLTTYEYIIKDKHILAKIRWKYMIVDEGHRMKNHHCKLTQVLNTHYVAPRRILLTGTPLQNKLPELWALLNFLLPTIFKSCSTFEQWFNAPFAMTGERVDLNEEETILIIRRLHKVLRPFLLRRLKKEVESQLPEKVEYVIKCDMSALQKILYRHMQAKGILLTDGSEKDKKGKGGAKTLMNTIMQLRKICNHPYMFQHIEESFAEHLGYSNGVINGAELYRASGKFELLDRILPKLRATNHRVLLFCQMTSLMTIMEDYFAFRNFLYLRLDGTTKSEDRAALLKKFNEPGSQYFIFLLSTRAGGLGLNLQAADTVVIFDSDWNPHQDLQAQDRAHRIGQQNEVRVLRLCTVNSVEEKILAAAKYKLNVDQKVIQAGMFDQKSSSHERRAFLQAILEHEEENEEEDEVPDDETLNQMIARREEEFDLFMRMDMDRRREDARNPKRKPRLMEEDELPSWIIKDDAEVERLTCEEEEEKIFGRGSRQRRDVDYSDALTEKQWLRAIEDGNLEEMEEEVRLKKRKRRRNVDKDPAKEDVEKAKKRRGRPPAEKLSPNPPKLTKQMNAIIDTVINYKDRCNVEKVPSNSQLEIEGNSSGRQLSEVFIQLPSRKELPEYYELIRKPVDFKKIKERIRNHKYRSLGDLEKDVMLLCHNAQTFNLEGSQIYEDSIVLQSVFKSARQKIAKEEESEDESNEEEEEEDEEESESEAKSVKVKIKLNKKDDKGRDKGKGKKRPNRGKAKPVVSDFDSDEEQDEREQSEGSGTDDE

Broadly, the Dmax is the greatest extent of degradation seen. As usually defined, the DC50 is the concentration giving 50% degradation. Consider `Cc1ncsc1-c1ccc(CNC(=O)[C@@H]2C[C@@H](O)CN2C(=O)C(c2cc(OC[C@H]3CC[C@H](N4CCC(c5cnc(N6CCc7[nH]c8nnc(-c9ccccc9O)cc8c7[C@H]6C)nc5)CC4)CC3)no2)C(C)C)cc1` (single isomer, unassigned) [I-1], for which the Dmax on SMARCA2 [1] (24 h), at SMARCA4 and on SMARCA2 [2] was more than 90% throughout. Also, the half-maximal degradation concentration (DC50) on SMARCA2 [1] (MV4-11 cells, 24 h) was 1 to 10 nM; on SMARCA4 (MV4-11 cells), 1 to 10 nM; at SMARCA2 [2] (A549 cells), less than 10 nM. Also, on SMARCA2 [1] (MV4-11 cells), the “Selectivity in MV411” value was “D (D (<10 fold))”.
For `C#Cc1ccc(CNC(=O)[C@@H]2C[C@@H](O)CN2C(=O)[C@@H](NC(=O)N2CC3(CC(CN4CCC(N5CCC(N6CCc7[nH]c8nnc(-c9ccccc9O)cc8c7[C@H]6C)CC5)CC4)C3)C2)C(C)(C)C)cc1` [I-190], the Dmax was 50 to 70% on SMARCA2 [1] (24 h), 50 to 70% at SMARCA4 and more than 90% on SMARCA2 [2]. Also, the DC50 at SMARCA2 [1] (MV4-11 cells, 24 h) was 10 to 100 nM; at SMARCA4 (MV4-11 cells), more than 100 nM; on SMARCA2 [2] (A549 cells), more than 100 nM. In addition, the “Selectivity in MV411” value on SMARCA2 [1] (MV4-11 cells) is “C (C (10-100 fold))”.
On to `C#Cc1cnc(CNC(=O)[C@@H]2C[C@@H](O)CN2C(=O)[C@@H](NC(=O)[C@H]2CCC3(CC2)C[C@H](N2CCC(c4cnc(N5CCN6c7cc(-c8ccccc8O)nnc7NC[C@H]6C5)nc4)CC2)C3)C(C)(C)C)c(OC)c1` (single isomer, unassigned) [I-298], for which, at SMARCA2 [1] (MV4-11 cells, 24 h), the “SMARCA2 MSD MV411 degradation 24 h: average Dmax %” value was “D (D (<50% degradation))” and the DC50 is more than 100 nM. Also, the “Selectivity in MV411” value on SMARCA2 [1] (MV4-11 cells) is given as “D (D (<10 fold))”. Also, on SMARCA4 (MV4-11 cells), the “SMARCA4 MSD MV411 degradation 24 h: average Dmax %” value is given as “D (D (<50% degradation))” and the DC50 was more than 100 nM. Also, on SMARCA2 [2] (A549 cells), the “SMARCA2 MSD A549 degradation 24 h: Average Dmax %” value is on record as “B (B (>70-90% degradation))” and the DC50 was 10 to 50 nM.
Consider `C#Cc1ccc(CNC(=O)[C@@H]2C[C@@H](O)CN2C(=O)[C@@H](NC(=O)N2CC3(CC(N4CCC(c5cnc(N6CCc7[nH]c8nnc(-c9ccccc9O)cc8c7[C@H]6C)nc5)CC4)C3)C2)C(C)(C)C)c(OCCCC(=O)O)c1` [I-145], for which the Dmax on SMARCA2 [1] (24 h), on SMARCA4 and at SMARCA2 [2] was more than 90% throughout. Also, the DC50 at SMARCA2 [1] (MV4-11 cells, 24 h) was less than 1 nM; at SMARCA4 (MV4-11 cells), 10 to 100 nM; at SMARCA2 [2] (A549 cells), 10 to 50 nM. The “Selectivity in MV411” value at SMARCA2 [1] (MV4-11 cells) is recorded as “C (C (10-100 fold))”.
As for `C#Cc1ccc(CNC(=O)[C@@H]2C[C@@H](O)CN2C(=O)[C@@H](NC(=O)N2CC3(CC(N4C[C@H]5CN(c6cnc(N7CCc8[nH]c9nnc(-c%10ccccc%10O)cc9c8[C@H]7C)nc6)C[C@H]5C4)C3)C2)C(C)(C)C)cc1` [I-171], the values for the maximal degradation (Dmax) at SMARCA2 [1] (24 h), on SMARCA4 and on SMARCA2 [2] were 50 to 70%, less than 50% and more than 90%, respectively. Moreover, the DC50 at SMARCA2 [1] (MV4-11 cells, 24 h) is 10 to 100 nM; at SMARCA4 (MV4-11 cells), more than 100 nM; at SMARCA2 [2] (A549 cells) it was more than 100 nM. In addition, at SMARCA2 [1] (MV4-11 cells), the “Selectivity in MV411” value is on record as “C (C (10-100 fold))”.
`Cc1ncsc1-c1ccc(CNC(=O)[C@@H]2C[C@@H](O)CN2C(=O)[C@@H](NC(=O)C2(F)CC2)C(C)(C)C)c(OCCCCN2CCC(c3cnc(N4CCN5c6cc(-c7ccccc7O)nnc6NC[C@H]5C4)nc3)CC2)c1` (single isomer, unassigned) [I-49]: the Dmax on SMARCA2 [1] (24 h), at SMARCA4 and at SMARCA2 [2] was more than 90% in each case. The 50% degradation concentration (DC50) is less than 1 nM at SMARCA2 [1] (MV4-11 cells, 24 h); 1 to 10 nM at SMARCA4 (MV4-11 cells); 10 to 50 nM on SMARCA2 [2] (A549 cells). For the same molecule, the “Selectivity in MV411” value at SMARCA2 [1] (MV4-11 cells) is given as “C (C (10-100 fold))”.
As to `C#Cc1ccc([C@H](C)NC(=O)[C@@H]2C[C@@H](O)CN2C(=O)[C@@H](c2cc(OCCN3CCC(N4CCC(N5CCC(CN6CCN7c8cc(-c9ccccc9O)nnc8NC[C@H]7C6)CC5)CC4)CC3)no2)C(C)C)cc1` (single isomer, unassigned) [I-334], the Dmax on SMARCA2 [1] (24 h) is less than 50%; at SMARCA4 it was less than 50%; at SMARCA2 [2], 50 to 70%. Moreover, the DC50 at SMARCA2 [1] (MV4-11 cells, 24 h) was more than 100 nM; on SMARCA4 (MV4-11 cells) it was more than 100 nM; at SMARCA2 [2] (A549 cells) it was more than 100 nM. Moreover, on SMARCA2 [1] (MV4-11 cells), the “Selectivity in MV411” value is listed as “D (D (<10 fold))”.
`C#Cc1ccc(CNC(=O)[C@@H]2C[C@@H](O)CN2C(=O)[C@@H](NC(=O)N2CCN(CC3CCN([C@H]4CC[C@H](N5CCN6c7cc(-c8ccccc8O)nnc7NC[C@H]6C5)CC4)CC3)CC2)C(C)(C)C)cc1` [I-217]: the greatest degradation seen (Dmax) is 50 to 70% at SMARCA2 [1] (24 h), less than 50% at SMARCA4 and 70 to 90% on SMARCA2 [2]. Also, the 50% degradation concentration (DC50) on SMARCA2 [1] (MV4-11 cells, 24 h) is 10 to 100 nM; on SMARCA4 (MV4-11 cells), more than 100 nM; at SMARCA2 [2] (A549 cells) it was more than 100 nM. Further, the “Selectivity in MV411” value at SMARCA2 [1] (MV4-11 cells) is given as “C (C (10-100 fold))”.

Source of the values: patent US20250170248A1, “SMARCA DEGRADERS AND USES THEREOF” (Kymera Therapeutics, Inc., priority 2021, published 2025).
